What was measured:
ERα = target: T1, ERα (Homo sapiens, UniProt P03372); assay: ERα reporter (luciferase) transactivation assay in transfected HEK293 cells; type: cell-based; design: expressed in transfected cells; host or cells: HEK293; settings: sample concentration 10 μM, 24 hours, mean of at least three independent transfections
T1 sequence (P03372 1-595): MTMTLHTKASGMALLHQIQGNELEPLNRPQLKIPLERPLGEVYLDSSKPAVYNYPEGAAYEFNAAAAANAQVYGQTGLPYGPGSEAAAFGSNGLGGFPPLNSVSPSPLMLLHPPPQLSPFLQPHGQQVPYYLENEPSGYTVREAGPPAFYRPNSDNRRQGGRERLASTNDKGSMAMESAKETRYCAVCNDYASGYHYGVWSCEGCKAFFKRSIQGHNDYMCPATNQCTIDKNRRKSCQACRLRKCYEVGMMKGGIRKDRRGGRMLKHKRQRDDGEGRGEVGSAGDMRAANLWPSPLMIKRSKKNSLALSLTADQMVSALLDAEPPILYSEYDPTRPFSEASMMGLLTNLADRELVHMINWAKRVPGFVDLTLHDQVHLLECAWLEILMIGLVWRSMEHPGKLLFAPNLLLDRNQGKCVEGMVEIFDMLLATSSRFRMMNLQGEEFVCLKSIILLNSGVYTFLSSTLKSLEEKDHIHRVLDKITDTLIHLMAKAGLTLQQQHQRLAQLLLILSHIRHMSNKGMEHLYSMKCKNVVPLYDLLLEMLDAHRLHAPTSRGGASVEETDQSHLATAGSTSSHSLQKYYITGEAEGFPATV
Method: (§1) Determination of the Estrogen Activity of the Compounds: Cell Culture, Transfection and Reporter Assays
(§2) All other reagents were of reagent grade from Sigma or Fluka. One day before transfection, HEK293 cells were seeded in 48-well plates (70×10^3 cells per well) in phenol-free Dulbecco's modified Eagle medium supplemented with 5% delipidated fetal bovine serum (Sigma) and antibiotics. After a medium change, the cells were transfected for 4 hours with 5 ng ERα or ERβ expression vector, 75 ng reporter plasmid pERE2TATA-LUC and 20 ng control plasmid pCMVβ by the calcium phosphate method. After transfection, the cells received fresh medium containing either vehicle (0.1% v/v) or test compound (10 μM). After 24 hours, the cells were washed, lysed and luciferase and β-galactosidase activities were determined from 20 μl of lysates with the Victor^2TM reader (PerkinElmer Wallac, Turku, Finland). […] The data are means ±SEM of at least three independent transfections.

ERβ = ERβ (Homo sapiens, UniProt Q92731); assay: ERβ reporter (luciferase) transactivation assay in transfected HEK293 cells; type: cell-based; design: expressed in transfected cells; host or cells: HEK293; settings: for ERβ receptor activation relative to 10 nM E2 corresponding 100: sample concentration 10 μM, 24 hours, mean of at least three independent transfections; for activation at 10 µM: HEK293, 24 h, read-out: ERβ receptor activation relative to 10 nM E2 corresponding 100, sample concentration 10 μM, mean of at least three independent transfections
ERβ, sequence (Q92731 whole entry): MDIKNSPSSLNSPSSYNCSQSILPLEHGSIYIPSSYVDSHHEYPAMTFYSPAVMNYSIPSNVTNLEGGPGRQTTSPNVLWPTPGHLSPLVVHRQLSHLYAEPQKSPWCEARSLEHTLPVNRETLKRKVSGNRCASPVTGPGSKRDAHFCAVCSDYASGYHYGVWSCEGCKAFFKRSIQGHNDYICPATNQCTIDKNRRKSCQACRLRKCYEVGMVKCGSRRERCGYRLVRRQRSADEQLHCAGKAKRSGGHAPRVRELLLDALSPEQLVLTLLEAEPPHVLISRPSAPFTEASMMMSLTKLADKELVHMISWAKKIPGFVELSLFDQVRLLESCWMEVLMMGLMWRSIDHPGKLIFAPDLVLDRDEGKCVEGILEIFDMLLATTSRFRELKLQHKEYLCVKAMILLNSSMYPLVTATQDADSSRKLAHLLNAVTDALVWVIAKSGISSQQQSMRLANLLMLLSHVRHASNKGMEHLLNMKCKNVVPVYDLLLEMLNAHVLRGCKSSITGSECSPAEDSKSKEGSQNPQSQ
Method: as §1, §2

| Compound | melting point | also measured |
| --- | --- | --- |
| c1ccc(CCC2CC(c3ccccc3)=NO2)cc1 (stereo not shown) [compound 111, 5-Phenethyl-3-phenyl-4,5-dihydroisoxazole] | 66.1 to 67.2 °C |  |
| Oc1ccc(CCC2=NOC(Cc3ccccc3)C2)cc1 (stereo not shown) [compound 93, 5-Benzyl-3-[2-(4-hydroxy-phenyl)-ethyl]-4,5-dihydro-isoxazole] | 143 to 144.8 °C |  |
| Clc1ccc(C2=NOC(Cc3ccccc3)(c3ccccc3)C2)cc1 (stereo not shown) [compound 76, 5-Benzyl-3-(4-chlorophenyl)-5-phenyl-4,5-dihydro-isoxazole] | 120.3 to 122.1 °C |  |
| Oc1cccc(CCC2=NOC(Cc3ccccc3)C2)c1 (stereo not shown) [compound 92, 5-Benzyl-3-[2-(3-hydroxy-phenyl)-ethyl]-4,5-dihydro-isoxazole] | 120.6 to 122.8 °C |  |
| Fc1ccccc1C1=NOC(Cc2ccccc2)(c2ccccc2)C1 (stereo not shown) [compound 75, 5-Benzyl-3-(2-fluorophenyl)-5-phenyl-4,5-dihydro-isoxazole] | 134.3 to 135.2 °C |  |
| CC1(Cc2ccccc2)CC(c2ccc3ccccc3c2)=NO1 (stereo not shown) [compound 57, 5-Benzyl-3-naphthalen-2-yl-5-methyl-4,5-dihydro-isoxazole] | 144.8 to 146.3 °C |  |
| Oc1ccc(CC2CC(CCc3ccccc3)=NO2)cc1 (stereo not shown) [compound 94, 5-(4-Hydroxy-benzyl)-3-phenethyl-4,5-dihydro-isoxazole] | 124.8 to 126.4 °C |  |
| c1ccc(CCC2=NOC(c3ccccc3)C2)cc1 (stereo not shown) [compound 110, 3-Phenethyl-5-phenyl-4,5-dihydroisoxazole] | 35 to 36.3 °C |  |
| COc1cccc(C2=NOC(Cc3ccccc3)(c3ccccc3)C2)c1 (stereo not shown) [compound 77, 5-Benzyl-5-phenyl-3-(3-methoxyphenyl)-4,5-dihydro-isoxazole] | 94.4 to 95.2 °C |  |
| Clc1cccc(Cl)c1C1=NOC(Cc2ccccc2)C1 (stereo not shown) [compound 42, 5-Benzyl-3-(2,6-dichlorophenyl)-4,5-dihydroisoxazole] | 90 to 90.5 °C |  |
| COc1ccccc1C1=NOC(Cc2ccccc2)(c2ccccc2)C1 (stereo not shown) [compound 74, 5-Benzyl-3-(2-methoxyphenyl)-5-phenyl-4,5-dihydro-isoxazole] | 109.3 to 110.2 °C |  |
| Oc1ccc(CCC2=NOC(Cc3ccc(O)cc3)C2)cc1 (single isomer, unassigned) [96b, 5-(4-Hydroxy-benzyl)-3-[2-(4-hydroxy-phenyl)-ethyl]-4,5-dihydro-isoxazole] |  | ERα receptor activation relative to 10 nM E2 corresponding 100 (ERα): 81.4%; ERβ receptor activation relative to 10 nM E2 corresponding 100 (ERβ): 4.1% |
| COc1ccc(CC2CC(CCc3ccccc3)=NO2)cc1 (single isomer, unassigned) [65b, 5-(4-Methoxybenzyl)-3-phenethyl-4,5-dihydroisoxazole] |  | ERα receptor activation relative to 10 nM E2 corresponding 100 (ERα): 16.1%; activation at 10 µM (ERβ): 13.2% |
| Oc1ccccc1CCC1=NOC(Cc2ccc(F)cc2)C1 (stereo not shown) [compound 97, 5-(4-Fluoro-benzyl)-3-[2-(2-hydroxy-phenyl)-ethyl]-4,5-dihydro-isoxazole] | 124.8 to 126.4 °C |  |
| c1ccc(CCC2=NOC(CCc3ccccc3)C2)cc1 (stereo not shown) [compound 116, 3,5-Di-phenethyl-4,5-dihydroisoxazole] | 56.2 to 58 °C |  |
| c1ccc(CC2CC(c3ccccc3)=NO2)cc1 (single isomer, unassigned) [107b, 5-Benzyl-3-phenyl-4,5-dihydroisoxazole] |  | ERα receptor activation relative to 10 nM E2 corresponding 100 (ERα): 47.2%; ERβ receptor activation relative to 10 nM E2 corresponding 100 (ERβ): 12.8% |
| Fc1ccc(CC2CC(CCc3ccccc3)=NO2)cc1 (single isomer, unassigned) [66a, 5-(4-fluorobenzyl)-3-phenethyl-4,5-dihydroisoxazole] |  | ERα receptor activation relative to 10 nM E2 corresponding 100 (ERα): 99.2%; activation at 10 µM (ERβ): 11.2% |
| Oc1ccc(C2=NOC(Cc3ccccc3)C2)cc1 (single isomer, unassigned) [80a, 5-Benzyl-3-(4-hydroxy-phenyl)-4,5-dihydro-isoxazole] |  | ERα receptor activation relative to 10 nM E2 corresponding 100 (ERα): 52.0%; activation at 10 µM (ERβ): 28.5% |
| Oc1ccccc1CCC1=NOC(CCc2ccccc2)C1 (single isomer, unassigned) [104b, 3[2-(2-Hydroxy-phenyl)-ethyl]-5-phenethyl-4,5-dihydro-isoxazole] |  | ERα receptor activation relative to 10 nM E2 corresponding 100 (ERα): 21.8%; ERβ receptor activation relative to 10 nM E2 corresponding 100 (ERβ): 2.6% |
| Oc1ccc(CCC2=NOC(Cc3ccc(F)cc3)C2)cc1 (single isomer, unassigned) [98b, 5-(4-Fluoro-benzyl)-3-[2-(4-hydroxy-phenyl)-ethyl]-4,5-dihydro-isoxazole] |  | ERα receptor activation relative to 10 nM E2 corresponding 100 (ERα): 5.7%; ERβ receptor activation relative to 10 nM E2 corresponding 100 (ERβ): 4.4% |
| Oc1ccc(CCCC2=NOC(Cc3ccc(O)cc3)C2)cc1 (single isomer, unassigned) [101b, 5-(4-Hydroxy-benzyl)-3-[3-(4-hydroxy-phenyl)-propyl]-4,5-dihydro-isoxazole] |  | ERα receptor activation relative to 10 nM E2 corresponding 100 (ERα): 13.6%; ERβ receptor activation relative to 10 nM E2 corresponding 100 (ERβ): 10.6% |
| c1ccc(CCC2CC(c3ccccc3)=NO2)cc1 (single isomer, unassigned) [111a, 5-Phenethyl-3-phenyl-4,5-dihydroisoxazole] |  | ERα receptor activation relative to 10 nM E2 corresponding 100 (ERα): 22.8%; ERβ receptor activation relative to 10 nM E2 corresponding 100 (ERβ): 8.5% |

Further lines, with some results ahead:

| melting point | Compound | also measured |
| --- | --- | --- |
| 97.8 to 98.6 °C | COc1ccc(C2=NOC(C)(Cc3ccccc3)C2)cc1 (stereo not shown) [compound 53, 5-Benzyl-3-(4-methoxyphenyl)-5-methyl-4,5-dihydro-isoxazole] |  |
| 116.7 to 118.7 °C | COc1ccc(C2=NOC(Cc3ccc(F)cc3)C2)cc1 (stereo not shown) [compound 18, 5-(4-Fluorobenzyl)-3-(4-methoxyphenyl)-4,5-dihydroisoxazole] |  |
| 117.1 to 119.2 °C | CCc1ccc(CC2CC(c3ccc(Cl)cc3)=NO2)cc1 (stereo not shown) [compound 34, 3-(4-Chlorophenyl)-5-(4-ethylbenzyl)-4,5-dihydroisoxazole] |  |
| 126.2 to 127.3 °C | COc1ccc(CC2CC(c3ccc(Cl)cc3)=NO2)cc1 (stereo not shown) [compound 38, 3-(4-Chlorophenyl)-5-(4-methoxybenzyl)-4,5-dihydroisoxazole] |  |
| 90.1 to 90.6 °C | COc1ccc(CC2CC(c3c(Cl)cccc3Cl)=NO2)cc1 (stereo not shown) [compound 43, 3-(2,6-Dichlorophenyl)-5-(4-methoxybenzyl)-4,5-dihydroisoxazole] |  |
| 69.8 to 71.2 °C | Fc1ccc(C2=NOC(CCc3ccccc3)C2)cc1 (stereo not shown) [compound 62, 3-(4-Fluoro-phenyl)-5-phenethyl-4,5-dihydro-isoxazole] |  |
| 74.8 to 75.7 °C | Clc1ccc(C2=NOC(CCc3ccccc3)C2)cc1 (stereo not shown) [compound 63, 3-(4-Chloro-phenyl)-5-phenethyl-4,5-dihydro-isoxazole] |  |
| 123 to 124 °C | COc1ccc(C2=NOC(Cc3c(F)c(F)c(F)c(F)c3F)C2)cc1 (stereo not shown) [compound 19, 3-(4-methoxyphenyl)-5-pentafluorobenzyl-4,5-dihydroisoxazole] |  |
| 81 to 82 °C | COc1ccccc1C1=NOC(Cc2ccccc2)C1 (stereo not shown) [compound 6, 5-Benzyl-3-(2-methoxyphenyl)-4,5-dihydroisoxazole] |  |
| 69.7 to 71.9 °C | COc1ccc(C2=NOC(CCc3ccccc3)C2)cc1 (stereo not shown) [compound 60, 3-(4-Methoxy-phenyl)-5-phenethyl-4,5-dihydro-isoxazole] |  |
| 99.6 to 100.3 °C | COc1ccc(C2=NOC(Cc3ccccc3)C2)cc1 (stereo not shown) [compound 12, 5-Benzyl-3-(4-methoxyphenyl)-4,5-dihydroisoxazole] |  |
| 89 to 90.4 °C | COc1ccc(CC2CC(c3ccc(Cl)cc3)=NO2)cc1OC (stereo not shown) [compound 39, 3-(4-Chlorophenyl)-5-(3,4-dimethoxybenzyl)-4,5-dihydroisoxazole] |  |
| 128.2 to 129.4 °C | Clc1ccc(C2=NOC(Cc3ccccc3)C2)cc1 (stereo not shown) [compound 33, 5-Benzyl-3-(4-Chlorophenyl)-4,5-dihydroisoxazole] |  |
| 67 to 68 °C | c1ccc(CC2CC(c3ccccc3)=NO2)cc1 (stereo not shown) [compound 107, 5-Benzyl-3-phenyl-4,5-dihydroisoxazole] |  |
| 135.8 to 137.7 °C | COc1ccc(CC2CC(c3ccc(OC)cc3)=NO2)cc1 (stereo not shown) [compound 15, 5-(4-Methoxybenzyl)-3-(4-methoxyphenyl)-4,5-dihydroisoxazole] |  |
